Reference: patent publication US20250034134A1, “15-PGDH INHIBITOR AND USE THEREOF” (Wuhan Humanwell Innovative Drug Research and Development …, priority 2021, published 2025)

Columns and labels:
IBD in mice = assay: Efficacy on IBD in mice; type: in vivo, mouse; details: for DAI / body weight / inflammatory cell infiltration score of colon tissues / tissue injury score of colon tissues: vs G2 model group; for Colon weight CW (g): day 0 to day 9, DSS mice
Protocol: The mice in G2 to G6 were given 2% DSS aqueous solution on day 0 to day 6, normal water on […], vehicle/positive/test substance on day 0 to day 9, and euthanized on day 10 for necropsy. Colon weight (CW) and colon length (CL) were measured and colon tissues […] were subjected to histopathological examination.

Pharmacokinetics in mice = type: in vivo; details: mouse, po; male CD-1 mice, 10 mg/kg, gavage, plasma
Protocol: The pharmacokinetic properties of the compounds of the present disclosure in mice were determined with reference to the following experimental methods.
Three male CD-1 mice were used, administered at a dose of 10 mg/kg, the route of administration was by gavage, and the vehicle was 5% DMSO+10% Solutol+85% Saline. The mice were fasted overnight, and the time points of blood collection were before administration and at 15 minutes, 30 minutes, 1 hour, 2 hours, 4 hours, 8 hours, and 24 hours after administration. Blood samples were centrifuged at 6800 g for 6 minutes at 2 to 8° C., and plasma was collected and stored at −80° C. 10 μL of plasma at each time point was taken, and added with 200 μL of methanol containing 100 ng/mL internal standard. The mixture was vortexed, mixed evenly, and then centrifuged at 18000 g for 7 minutes at 2 to 8° C. 200 μL of the mixture was transferred to a 96-well injection plate for LC-MS/MS quantitative analysis. The main pharmacokinetic parameters were analyzed using WinNonlin 7.0 software with non-compartmental model.

15-PGDH = 15-PGDH (Homo sapiens (Human), UniProt P15428); assay: Inhibition test of compounds on 15-PGDH enzyme; type: biochemical
Sequence of 15-PGDH (P15428 whole entry): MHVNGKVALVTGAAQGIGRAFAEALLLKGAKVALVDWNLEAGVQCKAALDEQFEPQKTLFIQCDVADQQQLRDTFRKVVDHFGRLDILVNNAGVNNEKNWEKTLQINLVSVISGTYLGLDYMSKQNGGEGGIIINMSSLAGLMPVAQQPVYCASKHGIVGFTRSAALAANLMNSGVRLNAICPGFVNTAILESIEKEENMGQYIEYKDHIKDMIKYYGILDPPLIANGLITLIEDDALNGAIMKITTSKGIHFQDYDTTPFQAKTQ
Protocol: 15-PGDH (R&D Systems, Cat. No.: 5660-DH-010) was prepared to twice the final concentration, i.e., 30 nM, using Assay Buffer (50 mM Tris-HCl, pH 7.5, 0.01vol % Tween 20). The obtained mixture was then added to a 384-well white plate (Cisbio Bioassays, Cat. No. 66PL384025) at 8 μL/well. Negative control wells (with Assay Buffer only and without enzyme) were set. The compound was then prepared to 4 times the final concentration using Assay Buffer, i.e., diluted 3-fold to 10 concentrations starting from 4000 nM. The obtained mixture was added to the above white plate at 4 μL/well, mixed well, centrifuged at 1000 rpm for 1 minute, and incubated at 25° C. for 10 minutes. Both positive control wells (with 15-PGDH only) and negative control wells (without 15-PGDH) were set. A mixture of NAD^+(Select, Cat. No. S2518) and PGE2 (R&D Systems, Cat. No.: 2296/10) was then prepared using Assay Buffer. NAD^+ and PGE2 were prepared to four times their final concentrations, i.e., 2 mM and 0.12 mM, respectively, using Assay Buffer. The obtained mixture was then added to the above white plate at 4 μL/well, mixed well, centrifuged at 1000 rpm for 1 minute, and incubated at 25° C. for 30 minutes for the reaction. The fluorescence was detected at an excitation wavelength of 340 nm and an emission wavelength of 485 nm using instrument TECAN SPARK 20M. The IC50 value was calculated using four-parameter fitting with GraphPad Prism 8.0.

A549 cells = assay: Effect of compounds on PGE2 levels in A549 cell supernatant; type: cell-based; details: 20 nM compound, about 12 hours, after IL-10 stimulation; ELISA
Protocol: A549 cells (Procell, Wuhan) were cultured in F12K+10% FBS. The cells with good status in log phase were selected for the experiment, digested, counted, and inoculated into a 24-well plate at 8000 cells per well. The cells were cultured in a 37° C., 5% CO2 incubator overnight. After adherence, the cells were transferred to a culture medium containing 0.5% FBS and cultured for about 10 hours. IL-10 was added to each well (final concentration of 20 ng/mL, 1 mL per well), and a control group (without IL-10) was set up. After stimulation with IL-10 for about 24 hours, the cell culture medium of each well was aspirated and discarded, and the wells were gently washed with fresh culture medium containing 0.5% FBS. 400 μL of culture medium containing the compound of different concentrations (20 nM and 2500 nM) was added to each well and cultured for about 12 hours. The supernatant was collected and PGE2 was detected using ELISA kit (R&D Systems, Cat. No.: KGE004B).

In the case of `Cn1nc2cc(N3CC4CC4c4cc(C(=O)N5CCC(F)(F)CC5)cnc43)ccn2c1=O` (single isomer, unassigned) [Compound I-3B], the DAI (IBD in mice; G4, 2.5 mg/kg bid) is reported as “significant decrease”, the body weight (IBD in mice; G4, 2.5 mg/kg bid) is reported as “increase” and the “inflammatory cell infiltration score of colon tissues” value (IBD in mice; G4, 2.5 mg/kg bid) is reported as “significant decrease”. For the same compound, the “tissue injury score of colon tissues” value (IBD in mice; G4, 2.5 mg/kg bid) was “significant decrease”, the “Colon weight CW (g)” value (IBD in mice; G4 low-dose, 2.5 mg/kg bid) was “significant decrease” and the DAI (IBD in mice; G5, 5 mg/kg bid) was “significant decrease”. The body weight (IBD in mice; G5, 5 mg/kg bid) was “significant increase”, the “inflammatory cell infiltration score of colon tissues” value (IBD in mice; G5, 5 mg/kg bid) was “significant decrease” and the “tissue injury score of colon tissues” value (IBD in mice; G5, 5 mg/kg bid) was “significant decrease”. The “Colon weight CW (g)” value (IBD in mice; G5 high-dose, 5 mg/kg bid) was “significant decrease”.

Compound `Cn1nc2cc(N3CC4CC4c4cc(C(=O)N5CCC6(CC5)CC6)cnc43)ccn2c1=O` (centres unmarked) [Compound I-28, 7-(6-(6-azaspiro[2.5]octane-6-carbonyl)-1,1a,2,7b-tetrahydro-3H-cyclopropa[c][1,8]naphthyridin-3-yl)-2-methyl-[1,2,4]triazolo[4,3-a]pyridin-3(2H)-one] has an AUC(0-t) (Pharmacokinetics in mice) of 10700 ng·h/mL, a Cmax (Pharmacokinetics in mice) of 5040 ng/mL and an IC50 (15-PGDH) of 1.71 nM. The “Fold increase of PGE2 in A549 cell supernatant” value (“Fold increase of PGE2” for short) (A549 cells) was 4.05.

With `CN1Cc2cc(N3CC4CC4c4cc(C(=O)N5CCC(F)(F)CC5)cnc43)cnc2C1=O` (centres unmarked) [Compound I-2, 3-(6-(4,4-difluoropiperidine-1-carbonyl)-1,1a,2,7b-tetrahydro-3H-cyclopropa[c][1,8]naphthyridin-3-yl)-6-methyl-5,6-dihydro-7H-pyrrolo[3,4-b]pyridin-7-one] the IC50 (15-PGDH) was 5.15 nM and the “Fold increase of PGE2” value (A549 cells) was 5.23.

With `Cn1nc2cc(N3CC4CC4c4cc(C(=O)N5CCCC(C(F)(F)F)C5)cnc43)ccn2c1=O` (centres unmarked) [Compound I-26, 2-methyl-7-(6-(3-(trifluoromethyl)piperidine-1-carbonyl)-1,1a,2,7b-tetrahydro-3H-cyclopropa[c] [1,8]naphthyridin-3-yl)-[1,2,4]triazolo[4,3-a]pyridin-3(2H)-one] the IC50 (15-PGDH) was 9.9 nM and the “Fold increase of PGE2” value (A549 cells) was 4.82.

For `Cn1nc2cc(N3CC4CC4c4cc(C(=O)N5CCC[C@H](CF)C5)cnc43)ccn2c1=O` (stereo partly drawn) [Compound I-31, 7-(6-((S)-3-(fluoromethyl)piperidine-1-carbonyl)-1,1a,2,7b-tetrahydro-3H-cyclopropa[c][1,8]naphthyridin-3-yl)-2-methyl-[1,2,4]triazolo[4,3-a]pyridin-3(2H)-one], the IC50 (15-PGDH) was 4.1 nM and the “Fold increase of PGE2” value (A549 cells) was 2.90.

With `Cn1nc2cc(N3CC4CC4c4cc(C(=O)N5CCCC(F)C5)cnc43)ccn2c1=O` (centres unmarked) [Compound I-27, 7-(6-(3-fluoropiperidine-1-carbonyl)-1,1a,2,7b-tetrahydro-3H-cyclopropa[c][1,8]naphthyridin-3-yl)-2-methyl-[1,2,4]triazolo[4,3-a]pyridin-3(2H)-one] the IC50 (15-PGDH) was 5.7 nM and the “Fold increase of PGE2” value (A549 cells) was 2.60.

Compound `Cn1ccc2cc(N3CC4CC4c4cc(C(=O)N5CCC(F)(F)CC5)cnc43)ccc2c1=O` (centres unmarked) [Compound I-12, 6-(6-(4,4-difluoropiperidine-1-carbonyl)-1,1a,2,7b-tetrahydro-3H-cyclopropa[c][1,8]naphthyridin-3-yl)-2-methylisoquinolin-1(2H)-one] has an AUC(0-t) (Pharmacokinetics in mice) of 107000 ng·h/mL, a Cmax (Pharmacokinetics in mice) of 14800 ng/mL and an IC50 (15-PGDH) of 2.1 nM. The “Fold increase of PGE2” value (A549 cells) was 5.44.
